Where “and” joins values, the source holds several entries; their conditions need not be identical. Equal values may be shown once. Entries after “also recorded” stand apart in the source; their conditions may differ. Read-outs that look alike come from different tables or passages of the source. Starred links: 1 amine or outer side, 2 acyl side, 3 side chain; linkers in the order of their positions; H or OH if unused. Positions of bridges follow the written chain, without caps; N, C: chain ends. Non-standard residues stand in square brackets, D forms with d. Residues, ends and D or L forms follow the SMILES beside them. Chains are numbered I, II in the order given. Actinocin(9to1) = Cc1c2oc3c(C)ccc(C(=O)[*:1])c3nc-2c(C(=O)[*:2])c(N)c1=O; NMeV = CN[C@H](C(=O)O)C(C)C; Sar = CNCC(=O)O
Key:
[1] = XTT cytotoxicity assay in HeLa cells; details: human
Method: (§1) HeLa, U937, and Vero cell lines were maintained in culture flasks containing Eagle’s Minimum Essential Medium supplemented with 10% heat-inactivated FBS and 1% antibiotics (100 U/mL penicillin, 100 μg/mL streptomycin, and 250 μg/mL fungizone). The cells were grown at 37 °C in a humidified incubator set at 5% CO2. Cells were subcultured after they formed a monolayer on the flask. The cells were detached by treating them with trypsin-EDTA (0.25% trypsin containing 0.01% EDTA) for 10 minutes and then by adding complete medium to inhibit the reaction. Cytotoxicity was measured by the XTT method using the Cell Proliferation Kit II. The method described by Zheng et al. was used to perform the assay. Cells were seeded (100 μL) in a 96-well microtiter plate (concentration 1 × 10^5 cells/mL). The plate was then incubated for 24 h at 37 °C and 5% CO2 to allow the cells to attach to the bottom of the wells. The compounds were each prepared to a stock solution of 20 mg/mL and added to the microtiter plate. Serial dilutions were made to range from a concentration of 100 μg/mL–0.7 μg/mL for each compound. The microtiter plate was incubated for a further 72 h. The control wells included vehicle-treated cells exposed to 2% DMSO and the positive control Actinomycin D, with concentrations ranging between 0.5 μg/mL and 0.002 μg/mL. After the 72 h incubation period, the XTT reagent (50 μL) was added to a final concentration of 0.3 mg/mL and the plate was then further incubated for another 2 h. After the incubation the absorbance of the color complex was read at 490 nm with a reference wavelength set at 690 nm. […] The IC50 values were reported at ±95% confidence intervals (±95% CI). The results were analyzed using the GraphPad Prism 4 program.

[2] = XTT cytotoxicity assay in Vero cells; details: African green monkey
Method: as §1

[3] = XTT cytotoxicity assay in U937 cells; details: human
Method: as §1

HIV-1 PR = molecular target: T1, HIV-1 PR (Human immunodeficiency virus type 1 group M subtype B, UniProt P04585); experiment: HIV-1 protease direct enzyme assay (fluorogenic peptide substrate); type: biochemical; details: for inhibition at 100 µg/mL: screened at 100 µg/mL
T1 construct: HIV-1 protease enzyme was purchased from Bachem Bioscience Inc; purchased Bachem Bioscience Inc
Method: HIV-1 protease enzyme was purchased from Bachem Bioscience Inc. King of Prussia, PA, […] and the substrate (a synthetic peptide that contains a cleavage site Tyr-Pro for HIV protease as well as two covalently modiﬁed amino acids for the detection of cleavage). The assay was performed according to procedures by Lam et al., 2000 [39], in black 96 well assay plates obtained from Corning Incorporated, (Corning, New York, NY, USA). The fluorescence intensity was measured at an excitation wavelength of 355 nm and an emission wavelength of 460 nm using a synergy microplate spectrofluorometer (BioTek, Analytical & Diagnostic products, South Africa). […] DMSO was included in the enzyme control (1% DMSO). […] The percentage inhibition was calculated based on the formula: 100 − [(Test reagent RFU − background RFU)/(untreated control RFU − blank) × 100] where RFU = relative fluorescence units.
All the experiments were repeated three times in order to ensure the precision and accuracy of the data.

HeLa cells [4] = experiment: Real-time cell electronic sensing (RT-CES, xCELLigence) in HeLa cells; type: cell-based; details: for inhibition of cell proliferation compared to untreated cells (RT-CES): HeLa, Figure 5
Method: The xCELLigence system was used according to the instructions of the supplier (Roche Diagnostics, Mannheim, Germany and ACEA Biosciences, San Diego, CA, USA). HeLa cell line, media, trypsin-EDTA, fetal bovine serum (FBS), phosphate buffer saline (PBS), and antibiotics were supplied by […] Biological (Pty) Ltd. (Modderfontein, Johannesburg, South Africa). The electronic impedance of sensor electrodes that connect the E plate to the instrument is measured to allow monitoring and detection of physiological changes of the cells on the electrodes. The impedance measured between electrodes in an individual well depends on electrode geometry, ion concentration in the well and whether or not cells are attached to the electrodes. In the absence of cells, electrode impedance is mainly determined by the ion environment, both at the electrode/solution interface, and in the bulk solution. In the presence of cells, cells attached to the electrode sensor surfaces will act as insulators and thereby alter the local ion environment at the electrode/solution interface, leading to an increase in impedance. Thus, the more cells that are growing on the electrodes, the larger the value of electrode impedance. This assay has been described for the measurement of cytotoxicity and can be used to determine other cellular parameters such as cell proliferation, cytotoxicity start time, cell recovery, and cell response patterns in real time. HeLa cells were grown and expanded in tissue-culture flasks. After reaching ~75% confluence, the HeLa were washed with PBS, and afterwards detached from the flasks by a brief treatment with trypsin. Subsequently, 50 μL of cell culture media at room temperature was added into each well of E-plate. After this the plate was connected to the system and checked in the cell culture incubator for proper electrical-contacts and the background impedance was measured over 24 h. […] One-hundred microliters of each cell suspension was added to the 50 μL medium containing wells on the E-plate, in order to determine the optimum cell concentration. After 30 min incubation at room temperature, E-plates were placed into the cell culture incubator. Finally, adhesion, growth, and proliferation of the cells was monitored every 30 min for a period of up to 18 h via the incorporated sensor electrode arrays of the E-Plate. The electrical impedance was measured by the RTCA-integrated software of the xCELLigence system as a dimensionless parameter termed Cell index (CI). […] All experiments were run for 72 h after adding the compounds. All calculations were obtained using the RTCA-integrated software of the xCELLigence system.

HeLa cells [5] = experiment: XTT cytotoxicity assay in HeLa cells; details: for IC50: read-out: Cytotoxicity IC50 HeLa, XTT, 72 h incubation
Method: as §1

Vero cell line = experiment: XTT cytotoxicity assay in Vero cells; details: at 4.85 µM (HIV-1 PR IC50 concentration)
Method: as §1

U937 cells = experiment: XTT cytotoxicity assay in U937 cells; details: at 4.85 µM (HIV-1 PR IC50 concentration)
Method: as §1

KB = system: KB; design: method as in PMID 9722490; details: cited from earlier work
[6] = system: human prostate cancer cell line LNCaP; details: cited from earlier work
A549 cancer cell lines = details: cited from earlier work
HT-29 = details: cited from earlier work
P-388 = details: cited from earlier work
[7] = HeLa cells, Cytotoxicity IC50 HeLa, XTT
[8] = HeLa cells, Cytotoxicity IC50 HeLa, XTT, 72 h incubation

Cc1c2oc3c(C)ccc(C(=O)N[C@@H]4C(=O)N[C@H](C(C)C)C(=O)N5CCC[C@H]5C(=O)N(C)CC(=O)N(C)[C@@H](C(C)C)C(=O)O[C@@H]4C)c3nc-2c(C(=O)N[C@@H]2C(=O)N[C@H](C(C)C)C(=O)N3CCC[C@H]3C(=O)N(C)CC(=O)N(C)[C@@H](C(C)C)C(=O)O[C@@H]2C)c(N)c1=O [Actinomycin D, reference compound] (I: T[dV]P[Sar][NMeV] / II: T[dV]P[Sar][NMeV]; ester I:1-I:C, II:1-II:C; linker I:N-II:N via Actinocin(9to1))
IC50 at 72 h [1]: 5.1 ± 0.1 µM | IC50 at 72 h [2]: 8.8 ± 2.5 µM | IC50 at 72 h [3]: 1.9 ± 0.865 µM

CC1=CCCC(C)=CCC(O)(C(C)C)CCC(C)=CCC1 (centres unmarked) [Compound 1, sarcophytol M]
IC50 at 72 h [1, 7]: 8.1 µg/mL | IC50 at 72 h [1, 8]: 27.5 ± 0.2 µM | IC50 at 72 h ([2]; Vero cells): 22 ± 0.2 µM | IC50 at 72 h ([3]; U937 cells): 31.7 ± 3.2 µM | IC50 (HIV-1 PR; read-out: IC50 HIV-1 PR): 15.7 ± 0.1 µM | inhibition at 100 µg/mL (HIV-1 PR): 100%

C=C1CCC(C(C)C)=CC2C1CCC2(C)O (centres unmarked) [Compound 2, alismol]
IC50 at 72 h [1, 8]: 30 ± 17.2 µM | IC50 at 72 h ([2]; Vero cells): 49 µM | IC50 (HIV-1 PR; read-out: IC50 HIV-1 PR): 7.2 ± 0.7 µM | inhibition at 100 µg/mL (HIV-1 PR): 96.2% | RT-CES effect in HeLa (HeLa cells [4]; 16 μg/mL (Figure 5)): cytostatic behavior | RT-CES (xCELLigence) effect in HeLa (HeLa cells [4]; 30 µg/mL): cytostatic effect | inhibition of cell proliferation compared to untreated cells (RT-CES) (HeLa cells [4]): 50%

C=C(CC[C@@H](C)[C@H]1CCC2C3CC=C4C[C@@H](O)CC[C@]4(C)C3CC[C@@]21C)C(C)C (stereo partly drawn) [Compound 3, 24-methylcholesta-5,24(28)-diene-3β-ol]
IC50 at 72 h [1, 8]: 48 ± 8.7 µM | IC50 at 72 h ([2]; Vero cells): 100 ± 1.2 µM

CO[C@]1(C)CCC(C(C)C)=C[C@H]2[C@H]1CC[C@]2(C)O [Compound 4, 10-O-methyl alismoxide]
IC50 at 72 h [1, 8]: 38 ± 0.7 µM | IC50 at 72 h ([2]; Vero cells): 49.8 ± 0.5 µM | IC50 at 72 h ([3]; U937 cells): 50 ± 0.23 µM

CC(C)C1=C[C@H]2[C@@H](CC[C@]2(C)O)[C@](C)(O)CC1 [Compound 5, alismoxide]
IC50 at 72 h [1, 8]: > 100 µM | IC50 at 72 h ([2]; Vero cells): > 100 µM | IC50 at 72 h ([3]; U937 cells): > 100 µM | RT-CES effect in HeLa (HeLa cells [4]; 60 μg/mL (Figure 5)): cytostatic behavior | RT-CES (xCELLigence) effect in HeLa (HeLa cells [4]; 100 µg/mL): cytostatic effect | inhibition of cell proliferation compared to untreated cells (RT-CES) (HeLa cells [4]): 50%

CCCCCCCCCCCCCCCCOC[C@@H](O)CO [Compound 6, (S)-chimyl alcohol]
IC50 at 72 h [1, 8]: 23.4 ± 5.8 µM | IC50 at 72 h ([2]; Vero cells): 60 ± 1.14 µM | IC50 (HIV-1 PR; read-out: IC50 HIV-1 PR): 26.6 ± 2.6 µM | inhibition at 100 µg/mL (HIV-1 PR): 100%

C=C(CCC(C)C1CCC2C3C(OC(C)=O)C=C4CC(O)CCC4(CO)C3CCC12C)C(C)C (stereo not drawn) [Compound 7, 7β-acetoxy-24-methylcholesta-5-24(28)-diene-3,19-diol]
CC50 at 72 h ([1]; HeLa cells): 4.3 ± 0.75 µM | IC50 at 72 h [1, 7]: 4.3 µg/mL | IC50 at 72 h [1, 8]: 4.3 µM | cell death in HeLa (HeLa cells [5]; at 4.85 µM (HIV-1 PR IC50 concentration)): 50% | IC50 (HeLa cells [5]): 5.3 ± 0.6 µM | IC50 at 72 h ([2]; Vero cells): 31.3 ± 14 µM | effect in Vero (normal cells) (Vero cell line): no effect | IC50 at 72 h [3]: 7.8 µg/mL and 10.6 µM | cell death in U937 (U937 cells): 20% | IC50 (HIV-1 PR): 4.85 ± 0.18 µM | inhibition at 100 µg/mL (HIV-1 PR): 71.5% | RT-CES response in HeLa (HeLa cells [4]; 2.5 µg/mL): dose dependent cytostatic response; also recorded: cytostatic effects | RT-CES response in HeLa (HeLa cells [4]; 10 and 5 µg/mL): dose dependent cytotoxic response; also recorded: dose dependent cytotoxic tendency | RT-CES cytotoxicity profile in HeLa (HeLa cells [4]; tested at IC50s obtained by XTT): confirmed their cytotoxic effects; also recorded: more toxic than the positive control | Cytotoxicity KB (KB): 0.38 µg/mL | Cytotoxicity IC50 LNCaP [6]: 15.5 µg/mL | Cytotoxicity A549 (A549 cancer cell lines): 0.81 µg/mL | Cytotoxicity HT-29 (HT-29): 0.87 µg/mL | Cytotoxicity P-388 (P-388): 0.42 µg/mL

CCCCCCCCCCCCCC=CCCC=CC(O)C(CO)NC(=O)CCCCCCCCCCC (stereo not drawn) [Compound 8, erythro-N-dodecanoyl-docosasphinga-(4E,8E)-dienine]
IC50 at 72 h [1, 8]: 71 µM | IC50 (HeLa cells [5]): 38.2 ± 0.7 µM | IC50 at 72 h ([2]; Vero cells): > 100 µM | IC50 at 72 h ([3]; U937 cells): > 100 µM | IC50 (HIV-1 PR; read-out: IC50 HIV-1 PR): 4.8 ± 0.92 µM | inhibition at 100 µg/mL (HIV-1 PR): 100% | RT-CES (xCELLigence) effect in HeLa (HeLa cells [4]; 100 µg/mL): only affected at long incubation times; also recorded: low level cytotoxicity

C=C(CC[C@@H](C)[C@H]1CCC2C3C(CC[C@@]21C)[C@@]1(CO)CC[C@H](O)CC1=C[C@@H]3O)C(C)C (stereo partly drawn) [Compound 9, 24-methylcholesta-5,24(28)-diene-3β,7β,19-triol]
IC50 at 72 h ([1]; Cytotoxicity IC50 HeLa): 3.4 µg/mL and 8 µM | IC50 at 72 h [2]: 11.4 ± 0.04 µM | IC50 at 72 h [3]: 16.4 ± 1.25 µM | Cytotoxicity KB (KB): 0.58 µg/mL | Cytotoxicity IC50 LNCaP [6]: 4.9 µg/mL | Cytotoxicity A549 (A549 cancer cell lines): 0.69 µg/mL | Cytotoxicity HT-29 (HT-29): 0.72 µg/mL | Cytotoxicity P-388 (P-388): 0.24 µg/mL
